Laboratory results from patent publication US20080058281A1, “Skin Lightening Compositions Comprising Vitamines and Flavonoids” (priority 2004, published 2008).

Test system: Melanoderm (MatTek MEL-300-B) tissue, epidermal keratinocytes (NHEK) and melanocytes (NHM)
Assay: Melanoderm system: quantification of light (alkali-soluble) and dark (alkali-insoluble) melanin
Type: cell-based, human
Settings: for Total Melanin: Melanoderm tissue, agents in medium at Table 1 concentrations (Pycnogenol 10 μg/ml, Vit C 30 μg/ml, Vit E 1 μM, Vit B12 1 ng/ml, Vit A 15 ng/ml, cysteine 10 μg/ml, niacinamide 10 μg/ml), control 6.93; for Ratio of light melanin (μg/g)/dark melanin (μg/g) / Dark Melanin / Light Melanin / Dark Melanin, change relative to control / Light Melanin, change relative to control: Table 1 concentrations; for Ratio of light melanin (μg/g)/dark melanin (μg/g): control 0.14; for Dark Melanin: alkali-insoluble melanin, control 6.08; for Dark Melanin / Light Melanin: OD 340 nm; for Light Melanin: alkali-soluble melanin, control 0.85; for Dark Melanin, change relative to control: value in brackets under Dark Melanin; for Light Melanin, change relative to control: value in brackets under Light Melanin
Description: In these examples, evaluation of the ability of various agents, individually and in combination, to influence levels of dark and light melanin was tested using the commercially available Melanoderm™ system.
The MelanoDerm™ MatTeks system consists of normal, human-derived epidermal keratinocytes (NHEK) and melanocytes (NHM) which have been cultured to form a multilayered, highly differentiated model of the human epidermis. The NHM within co-cultures undergo spontaneous melanogenesis leading to tissues of varying levels of pigmentation. The tissues are produced using serum free medium without artificial stimulators of melanogenesis such as TPA and IBMX. The cultures are grown on cell culture inserts at the air-liquid interface, allowing for simulated topical application of agents to be tested. Introduction of agents into the medium simulates systemic application.
On delivery, the melanoderms (MatTek MEL-300-B) were placed onto metal ring supports in a 6 well plate containing 5 ml of pre-warmed maintenance media (of EPI-100-MM-PRF), using aseptic technique as per MatTek's protocol. Incubation was carried out overnight at 37° C. and 4% CO2 to allow the melanoderms to recover and equilibrate fully. Once placed under these conditions the MEL-300 tissue, undergo melanogenesis and differentiation.
Treatment was initiated on the following morning. Agents to be tested were dissolved in appropriate solvents and added to warmed media at final concentrations pre-assessed for melanocyte toxicity. Each time the media was changed, the spent media was aspirated from the melanoderms and reserved for testing for toxicity (Lactate Dehydrogenase (Promega)) and Interleukin-1 release (R&D systems) and replaced with a fresh dose of media plus test agents whether within the media of the melanoderm. Melanoderms were returned to the incubator.
On observation of differences in darkening, microscopic and macroscopic darkening were recorded photographically. Harvesting the tissue of the melanoderm involved cutting away the tissue from its plastic support and was followed by quantification of melanin present post-treatment versus untreated.
Melanoderm samples were cut from the plastic holders and the wet weight of tissue measured. 200 μl 1M NaOH/8M urea was added to the melanoderm sample the tissue homogenised in a microfuge tube. Samples were whirlimixed at RT for 30 minutes on and off to release the soluble melanin. Samples were centrifuged at 13,000 rpm for 10 minutes and supernatant containing soluble melanin was removed to a fresh tube.
Protein was extracted from the supernatant by addition of 200 μl chloroform and then by mixing vigorously for 1 minute. Phases were separated by centrifugation at 13,000 rpm for 10 minutes. 150 μl of supernatant was added to a microtitre plate (in duplicate) and the OD 340 nm ascertained.
1M NaOH was added to the remaining pellet which contains the insoluble melanin and the sample vortexed for one minute. The sample was then incubated in a water bath at 37° C. for 96 hrs with daily mixing to released the insoluble melanin. The sample was centrifuged for 10 minutes at 13,000 rpm with 200 μl of chloroform and 190 μl of the supernatant taken to a fresh tube. The supernatant was centrifuged again and 150 μl removed to a microtitre plate for analysis of absorption at 340 nm.
Absolute melanin is calculated as the actual melanin quantity calculated from a previously determined light melanin standard curve: x=(y−0.003)/4.76423 (where x=concentration of melanin and y=optical density at 340 nm).

| Compound | Total Melanin [µg/g] | Ratio of light melanin (μg/g)/dark melanin (μg/g) | Dark Melanin [µg/g] | Light Melanin [µg/g] | Dark Melanin, change relative to control | Light Melanin, change relative to control |
| --- | --- | --- | --- | --- | --- | --- |
| N[C@@H](CS)C(=O)O [Cysteine] | 5.96 | 0.13 | 5.27 | 0.69 | (−13.3%) | (−18.8%) |
| NC(=O)c1cccnc1 [Niacinamide] | 8.10 | 0.13 | 7.16 | 0.94 | (+17.8%) | (+10.6%) |
| Vitamin A | 7.81 |  | 6.71 |  |  |  |
| Vitamin B12 | 7.93 | 0.19 | 6.66 | 1.27 | (+9.5%) | (+49.4%) |
